Measurements published in patent publication US9795694B2, “Imaging beta-amyloid peptides aggregation” (Hong Kong Baptist University, priority 2014, dated 2017).
“Also recorded” adds a separate entry of the source.

What was measured:
[1] = target: T1, Aβ (1-40) peptide aggregation / fibril formation (Homo sapiens, UniProt P05067); test: TIRFM study of inhibition of Aβ fibril formation; assay type: biochemical; settings: for inhibition of Aβ peptide aggregation and fibril growth: TIRFM, ThT dye excited at 445 nm
T1 construct: Aβ(1-40) fibrils prepared from Aβ40 with seed incubated at 37° C. for an hour in buffer
Text: These images were obtained by an addition of ThT dye excited at 445 nm.
The panels below show the images of seed only and Aβ fibril formation without the carbazole-based fluorophore for comparison. These images were obtained by an addition of ThT dye excited at 445 nm.
A novel series of water-soluble carbazole-based fluorophores has been designed and developed. […] Upon binding with Aβ peptides, there is about 8- to about 82-fold increase in fluorescence intensity concomitant with the substantial blue shifts (Δλ=14-22 nm) in the emission spectra of the fluorophores (FIG. 2A-2H). […] (e.g. Ffibril/FSLOH=81.5 vs. Fpeptide/FSLOH=6.3). Because of such strong increase in fluorescence, the signal-to-noise ratio is so high that imaging of single fibrils is possible. (FIG. 3A-3C) Compared to common commercial labeling dyes for Aβ such as Thioflavin-T and Congo Red, the carbazole-based fluorophores of the present invention provide an advantage of a wide range of excitation and emission tuning in visible to infra-red region (FIG. 4A-4B). Some of these molecules, e.g., SAM and SAOH, even emit at ˜[…] (FIG. 5A-5B), which can potentially be used for near infra-red fluorescence imaging. In addition to fluorescence titration, the binding of Aβ peptide and fibril with the carbazole-based fluorophores of the present invention were further confirmed by circular dichroism spectroscopy (FIG. 6A-6B), and electrospray ionization-mass spectrometry (ESI-MS). Total Internal Reflection Fluorescence Microscope (TIRFM) technique developed by us was used to investigate the inhibition effects of these functional fluorophores on Aβ fibril formation (FIG. 7A-7F). […] Such inhibitory effect was further confirmed by Transmission Electron Microscopy (TEM) study (FIG. 8A-8B).
The inhibitory effect of the carbazole-based fluorophores of the present invention on Aβ fibril growth was further investigated by measuring the (average) length of the Aβ fibrils formed after incubation of the Aβ monomers for 60 min with additions of SLOH at different time points during this period (FIG. 9A-9B). Parallel experiments conducted without any addition of SLOH were used as controls.
Total Internal Reflection Fluorescence Microscope (TIRFM) technique developed was used to investigate the inhibition effects of these functional fluorophores on Aβ (1-40) fibril formation (FIG. 17).

SH-SY5Y neuronal cell [2] = test: MTT reduction assay, cytotoxicity
Method: Human neuroblastoma SH-SY5Y neuronal cells were incubated with different concentrations of SLCOOH-conjugated SiO2@Fe3O4 nanoparticles at 37° C. for 24 h.

[3] = system: primary cortical neural cells; test: Protection from Aβ-induced cytotoxicity; assay type: cell-based; settings: Aβ monomer, oligomers and fibrils
Text: (§1) The reactive oxygen species (ROS) induced by the Aβ toxicity causes much damage in AD.

[4] = system: ROS in primary cortical cells; test: Reduction of ROS induced by Aβ species; assay type: cell-based
Text: as §1

[5] = Blood-brain barrier penetration after tail vein injection; assay type: in vivo; settings: mice
Text: (§2) However, in order for the observed neuroprotective effect to be clinically useful, these molecules need to be able to pass through the blood-brain barrier.

Aβ plaques = test: Aβ plaque targeting in brain, co-stained with ThT or Aβ antibody; assay type: in vivo, transgenic mice; settings: brain slides co-stained with ThT or Aβ antibody with DAB stain
Text: as §2
(A) Differential Interference Contrast (DIC) image of the brain slice of a 12-month-old APP/PS1 Tg mouse. (B) Histological staining of the brain slice with SLCOOH-conjugated SiO2@Fe3O4 nanoparticles (λex=500 nm, λem=620-680 nm). (C) ThT fluorescence images of the brain slice captured with λex=405 nm, λem=460-490 nm (D) The superimposed images of (B) and (C).

[6] = system: Aβ(1-40) and Aβ(1-42) peptides; test: Fluorescence titration of the fluorophores with Aβ peptides; assay type: binding; settings: Aβ peptide
Text: (§3) A novel series of water-soluble carbazole-based fluorophores has been designed and developed. […] Upon binding with Aβ peptides, there is about 8- to about 82-fold increase in fluorescence intensity concomitant with the substantial blue shifts (Δλ=14-22 nm) in the emission spectra of the fluorophores (FIG. 2A-2H). […] (e.g. Ffibril/FSLOH=81.5 vs. Fpeptide/FSLOH=6.3). Because of such strong increase in fluorescence, the signal-to-noise ratio is so high that imaging of single fibrils is possible. (FIG. 3A-3C) Compared to common commercial labeling dyes for Aβ such as Thioflavin-T and Congo Red, the carbazole-based fluorophores of the present invention provide an advantage of a wide range of excitation and emission tuning in visible to infra-red region (FIG. 4A-4B). Some of these molecules, e.g., SAM and SAOH, even emit at ˜[…] (FIG. 5A-5B), which can potentially be used for near infra-red fluorescence imaging. In addition to fluorescence titration, the binding of Aβ peptide and fibril with the carbazole-based fluorophores of the present invention were further confirmed by circular dichroism spectroscopy (FIG. 6A-6B), and electrospray ionization-mass spectrometry (ESI-MS). Total Internal Reflection Fluorescence Microscope (TIRFM) technique developed by us was used to investigate the inhibition effects of these functional fluorophores on Aβ fibril formation (FIG. 7A-7F). […]

Aβ(1-40) fibrils = target: T2, Aβ(1-40) fibrils (Homo sapiens, UniProt P05067); test: Fluorescence titration of the fluorophores with Aβ fibrils; assay type: binding
T2 construct: Aβ(1-40) fibrils prepared from Aβ40 with seed incubated at 37° C. for an hour in buffer
Text: as §3

SH-SY5Y neuronal cell [7] = test: Protection of neuronal cells from Aβ oligomer and fibril toxicity; assay type: cell-based, Human; settings: incubated for 2 and 6 hours
[8] = Fluorescence spectra in phosphate buffer solution; assay type: physicochemical
Text: as §3

T1 sequence (P05067 672-711): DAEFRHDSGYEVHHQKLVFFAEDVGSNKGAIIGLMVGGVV
T2 sequence (P05067 672-711): as above

Row | Compound | inhibition of Aβ peptide aggregation and fibril growth [1] | toxicity (in words) (SH-SY5Y neuronal cell [2]) | ability to penetrate the blood-brain barrier [5] | targeting of / selectivity towards Aβ plaques in brain (Aβ plaques) | also measured
1 | COCCOCCn1c2ccc(F)cc2c2cc(/C=C/c3cc[n+](CCO)c4ccccc34)ccc21 [F-SLOH, (E)-4-(2-(6-Fluoro-9-(2-(2-methoxyethoxy)ethyl)-9H-carbazol-3-yl)vinyl)-1-(2-hydroxyethyl)quinolin-1-ium chloride] | inhibit Aβpeptide aggregation and prevent fibril growth; also recorded: inhibit Aβ (1-40) peptide aggregation and prevent fibril growth; also recorded: potent Aβ aggregation inhibitors | non-toxic | show blood-brain permeability; also recorded: ability to cross the blood-brain barrier | target the Aβ plaques | protection from the neurotoxic effects of the Aβ species [3]: protected from the neurotoxic effects of the Aβ species; also recorded: protective effect against the neurotoxic activities of the Aβ oligomers and fibrils; reduction of ROS induced by the Aβ species [4]: reduce the ROS induced by the Aβ species
2 | COCCOCCn1c2ccccc2c2cc(/C=C/c3cc[n+](CCO)c4ccccc34)ccc21 [SLOH, (E)-1-(2-hydroxyethyl)-4-(2-(9-(2-(2-methoxyethoxy)ethyl)-9H-carbazol-3-yl)vinyl)-quinolinium chloride] | inhibition of Aβ fibril formation; also recorded: inhibit Aβ peptide aggregation and prevent fibril growth; also recorded: potent inhibitor of Aβ aggregation | non-toxic | – | colocalization of fluorescence signals of SLOH and ThT; also recorded: colocalization of fluorescence signals of SLOH and Aβ antibody; also recorded: selectivity of SLOH towards Aβ plaques | Fpeptide/FSLOH fluorescence enhancement [6]: 6.3; Ffibril/FSLOH fluorescence enhancement (Aβ(1-40) fibrils): 81.5; Aβ fibril growth (average fibril length) on addition of the compound ([1]; 50 μM added at different time points within 60 min incubation of Aβ monomer): strongly arrests its fibril growth; protection from the neurotoxic effects of Aβ oligomers and fibrils (SH-SY5Y neuronal cell [7]): protected from the neurotoxic effects of the Aβ oligomers and fibrils; also recorded: protective effect against the neurotoxic activities of the Aβ oligomers and fibrils
3 | COCCOCCn1c2ccccc2c2cc(/C=C/c3cc[n+](CC(=O)O)c4ccccc34)ccc21.[Br-] [SLCOOH, (E)-1-(carboxymethyl)-4-(2-(9-(2-(2-methoxyethoxy)ethyl)-9H-carbazol-3-yl)vinyl)quinolin-1-ium bromide] | – | non-toxic | BBB penetrable | able to target the Aβ species in-vivo with high affinity | –
4 | COCCOCCn1c2ccccc2c2cc(/C=C/c3c4ccccc4[n+](CCO)c4ccccc34)ccc21.[I-] [SAOH, (E)-10-(2-hydroxyethyl)-9-(2-(9-(2-(2-methoxyethoxy)ethyl)-9H-carbazol-3-yl)vinyl)-acridinium iodide] | inhibition of Aβ fibril formation; also recorded: inhibit Aβ peptide aggregation and prevent fibril growth; also recorded: potent inhibitor of Aβ aggregation | non-toxic | – | – | protection from the neurotoxic effects of Aβ oligomers and fibrils (SH-SY5Y neuronal cell [7]): protected from the neurotoxic effects of the Aβ oligomers and fibrils; also recorded: protective effect against the neurotoxic activities of the Aβ oligomers and fibrils; emission wavelength [8]: ~760 nm
5 | COCCOCCn1c2ccccc2c2cc(/C=C/c3cc[n+](CC(N)=O)c4ccccc34)ccc21 [SLAD, (E)-1-(2-Amino-2-oxoethyl)-4-(2-(9-(2-(2-methoxyethoxy)ethyl)-9H-carbazol-3-yl)vinyl)quinolin-1-ium bromide] | inhibit Aβpeptide aggregation and prevent fibril growth; also recorded: inhibit Aβ (1-40) peptide aggregation and prevent fibril growth; also recorded: potent Aβ aggregation inhibitors | non-toxic | show blood-brain permeability; also recorded: ability to cross the blood-brain barrier | target the Aβ plaques; also recorded: colocalization of fluorescence signals of SLAD and Aβ antibody | protection from the neurotoxic effects of the Aβ species [3]: protected from the neurotoxic effects of the Aβ species; also recorded: protective effect against the neurotoxic activities of the Aβ oligomers and fibrils; reduction of ROS induced by the Aβ species [4]: reduce the ROS induced by the Aβ species
6 | COCCOCCn1c2ccccc2c2cc(/C=C/c3cc[n+](CCCO)c4ccccc34)ccc21 [SLOH-Pr, (E)-1-(3-hydroxypropyl)-4-(2-(9-(2-(2-methoxyethoxy)ethyl)-9H-carbazol-3-yl)vinyl)-quinolinium bromide] | inhibit Aβ peptide aggregation and prevent fibril growth | – | – | – | –
7 | CC[n+]1ccc(/C=C/c2ccc3c(c2)c2ccccc2n3CCOCCOC)c2ccccc21 [SLE, (E)-1-ethyl-4-(2-(9-(2-(2-methoxyethoxy)ethyl)-9H-carbazol-3-yl)vinyl)quinolinium bromide] | inhibit Aβ peptide aggregation and prevent fibril growth | – | – | – | –
8 | COCCOCCn1c2ccccc2c2cc(/C=C/c3cc[n+](CCOCCOC)c4ccccc34)ccc21 [SLG, (E)-1-(2-(2-methoxyethoxy)ethyl)-4-(2-(9-(2-(2-methoxyethoxy)ethyl)-9H-carbazol-3-yl)vinyl)quinolinium iodide] | inhibit Aβpeptide aggregation and prevent fibril growth; also recorded: inhibit Aβ (1-40) peptide aggregation and prevent fibril growth | – | show blood-brain permeability | – | –
9 | CCOC(=O)C[n+]1ccc(/C=C/c2ccc3c(c2)c2ccccc2n3CCOCCOC)c2ccccc21 [SLAce, (E)-1-(2-Ethoxy-2-oxoethyl)-4-(2-(9-(2-(2-methoxyethoxy)ethyl)-9H-carbazol-3-yl)vinyl)quinolin-1-ium bromide] | inhibit Aβpeptide aggregation and prevent fibril growth; also recorded: inhibit Aβ (1-40) peptide aggregation and prevent fibril growth | – | show blood-brain permeability | – | –
10 | COCCOCCn1c2ccccc2c2cc(/C=C/c3c4ccccc4[n+](C)c4ccccc34)ccc21.[I-] [SAM, (E)-9-(2-(9-(2-(2-methoxyethoxy)ethyl)-9H-carbazol-3-yl)vinyl)-10-methylacridinium iodide] | inhibit Aβ peptide aggregation and prevent fibril growth | – | – | – | emission wavelength [8]: ~760 nm
11 | Cn1c2ccccc2c2cc(/C=C/c3cc[n+](C)c4ccccc34)ccc21 [Me-SLM, (E)-1-methyl-4-(2-(9-methyl-9H-carbazol-3-yl)vinyl)quinolinium iodide] | inhibit Aβ peptide aggregation and prevent fibril growth | – | – | – | –
